Laboratory results reported in ChEMBL document CHEMBL6120974, “Hydrazide-Based Class I Selective HDAC Inhibitors Completely Reverse Chemoresistance Synergistically in Platinum-Resistant Solid Cancer Cells” (J Med Chem, 2024).
Activity calls are given as the source filed them. No cut-off for these calls is given here.

Tests used:
[1] = biological target: T1, Protein deacetylase HDAC6 (Homo sapiens) (UniProt Q9UBN7); test: (§1) Inhibition of N-terminal GST-tagged full length recombinant human HDAC6 (1 to 1215 end residues) expressed in sf9 cells at > 3.33 uM using ZMAL (Z-Lys(Ac)-AMC as fluorogenic substrate preincubated with compound for 60 mins followed by substrate addition and measured after 90 mins by fluorescence based microplate reader analysis relative to control
T1 sequence (whole entry): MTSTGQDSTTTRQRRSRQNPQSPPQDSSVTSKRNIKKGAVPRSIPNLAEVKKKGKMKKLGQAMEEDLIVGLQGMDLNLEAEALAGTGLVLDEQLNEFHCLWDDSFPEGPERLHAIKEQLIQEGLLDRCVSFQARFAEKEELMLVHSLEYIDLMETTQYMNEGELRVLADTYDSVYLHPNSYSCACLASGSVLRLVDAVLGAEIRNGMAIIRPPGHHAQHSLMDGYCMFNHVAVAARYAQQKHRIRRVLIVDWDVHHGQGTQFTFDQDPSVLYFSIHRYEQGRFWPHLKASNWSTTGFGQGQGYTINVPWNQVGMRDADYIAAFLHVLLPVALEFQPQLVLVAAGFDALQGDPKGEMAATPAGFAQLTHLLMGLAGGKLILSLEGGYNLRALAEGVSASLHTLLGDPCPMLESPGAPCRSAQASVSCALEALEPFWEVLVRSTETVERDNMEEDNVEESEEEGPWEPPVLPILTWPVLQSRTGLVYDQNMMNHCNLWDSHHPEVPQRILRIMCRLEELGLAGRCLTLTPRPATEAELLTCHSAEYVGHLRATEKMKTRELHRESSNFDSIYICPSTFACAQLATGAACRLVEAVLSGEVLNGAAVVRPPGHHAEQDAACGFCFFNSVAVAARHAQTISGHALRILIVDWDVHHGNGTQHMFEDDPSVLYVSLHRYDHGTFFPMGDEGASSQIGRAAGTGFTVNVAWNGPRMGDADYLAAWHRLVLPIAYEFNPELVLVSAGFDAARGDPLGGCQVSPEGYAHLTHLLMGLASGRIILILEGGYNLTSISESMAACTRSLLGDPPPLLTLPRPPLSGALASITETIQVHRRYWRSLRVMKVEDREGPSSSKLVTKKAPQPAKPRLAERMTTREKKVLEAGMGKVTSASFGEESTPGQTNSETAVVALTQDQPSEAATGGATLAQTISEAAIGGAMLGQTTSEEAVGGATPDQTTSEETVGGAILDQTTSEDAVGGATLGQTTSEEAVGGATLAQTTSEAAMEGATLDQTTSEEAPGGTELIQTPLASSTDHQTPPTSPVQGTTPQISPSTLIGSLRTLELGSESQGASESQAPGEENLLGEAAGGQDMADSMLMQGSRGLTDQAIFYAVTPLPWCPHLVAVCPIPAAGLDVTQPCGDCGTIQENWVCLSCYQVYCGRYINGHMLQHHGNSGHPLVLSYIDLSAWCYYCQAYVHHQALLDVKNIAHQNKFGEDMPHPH

[2] = test system: Cal27CisR; test: Induction of apoptosis in cisplatin resistant human Cal27CisR cells assessed as decrease in Bcl-2 expression at 0.316 uM incubated for 24 to 72 hrs by Immunoblotting analysis; assay type: functional, cell-based; details: time 24-72 hrs
[3] = biological target: T1, Protein deacetylase HDAC6 (Homo sapiens); test: as §1, with “10” for “3.33”; details: time 150.0 min
[4] = Lipophilicity, logD of the compound in 1-octanol/PBS buffer at pH 7.4 by HPLC/UV analysis; assay type: physicochemical; details: 1-octanol/PBS buffer, read-out: logD
[5] = test system: Cal27CisR; test: Induction of apoptosis in cisplatin resistant human Cal27CisR cells assessed as decrease in BAX expression at 0.316 uM incubated for 24 to 72 hrs by Immunoblotting analysis; assay type: functional, cell-based; details: time 24-72 hrs

Row | Compound | inhibition [1] [%] | Activity [2] | inhibition [3] [%] | logD [4] | Activity [5]
1 | CCCCNNC(=O)c1ccc(CN(CC(=O)NCc2ccccc2)C(=O)c2ccc(N(C)C)cc2)cc1 | < 25 | – | – | – | –
2 | CCCNNC(=O)c1ccc(CN(CC(=O)NCc2ccccc2)C(=O)c2ccc(N(C)C)cc2)cc1 | – | inactive | < 25 | 3.76 | inactive
